Patent publication US20250230138A1, “COMPOUNDS HAVING A T-STRUCTURE FORMED BY AT LEAST FOUR CYCLES FOR USE IN THE TREATMENT OF CANCER AND OTHER INDICATIONS” (TheRas, Inc., priority 2022, published 2025)
Like-named read-outs stand apart in the source and are kept apart here.

Tests used:
[1] = molecular target: Cys242 in human PIK3CA (157-299) (Homo sapiens (Human), UniProt P42336); test: Covalent modification assay using MALDI-TOF MS; type: biochemical; conditions: 4 h reaction time point; 3.33 μM protein target, 1:7.5 protein to compound ratio (compounds 1-852)
Method in brief: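 Covalent adduct formation was read by linear-mode MALDI-TOF with sinapinic acid matrix, reported as modified-protein peak height divided by total protein peak heights. Reactions held PIK3CA (157-299) at 1 or 3.33 μM in HEPES/NaCl/MgCl2 buffer, pH 7.3, sampled after 15 min to 4 h at room temperature.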

pAKT in BT474 cells = test: Cell-based pAKT HTRF assay in BT474 cells; conditions: BT474 cells, 4 hr incubation, Compounds 10-999, read-out: pAKT inhibition IC50 in BT474 cells
Method in brief: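 The HTRF signal (excitation 320 nm, emission 615 nm) came from d2/Eu Cryptate antibodies added to lysates and incubated 4–24 h at room temperature. Those lysates were taken from cells treated for 4 hr with compound, top concentration 3 μM, in 0.25% DMSO.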

Chain of Cys242 in human PIK3CA (157-299) (P42336 157-299): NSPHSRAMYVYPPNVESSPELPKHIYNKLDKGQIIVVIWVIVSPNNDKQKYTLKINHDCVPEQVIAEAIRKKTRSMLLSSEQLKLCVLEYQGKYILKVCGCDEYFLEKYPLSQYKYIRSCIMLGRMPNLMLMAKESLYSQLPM

Structure (SMILES) | IC50 (pAKT in BT474 cells) | IC50 (pAKT in BT474 cells; Homo sapiens, BT-474) | % of modification [1]
C=CC(=O)N1CC[C@H](n2cc(-c3nc(-c4cnn(C)c4)c4ccsc4c3-c3c(F)cc(F)cc3OC(C)C)cn2)C1 [Compound 358] | 100 to 1000 nM | – | A (percent of modification of PIK3CA protein ≥75%)
C=CC(=O)N1CCc2ncc(-c3nc(-c4cnn(C)c4)c(C(F)(F)F)cc3-c3ccc(F)cc3OC(C)C)cc2C1 [Compound 360, 1-[3-[3-(4-fluoro-2-isopropoxy-phenyl)-6-(1-methylpyrazol-4-yl)-5-(trifluoromethyl)-2-pyridyl]-7,8-dihydro-5H-1,6-naphthyridin-6-yl]prop-2-en-1-one] | – | > 3000 nM | B (50%<percent of modification <75%)
C=C(F)C(=O)N1CCn2nc(-c3nc(-c4ccc5c(c4)CNC5=O)c4ccsc4c3-c3ccc(Cl)cc3OC(C)C)cc2C1 [Compound 361] | < 100 nM | – | A (percent of modification of PIK3CA protein ≥75%)
C=CC(=O)N1CCc2nc(-c3nc(-c4cnn(C)c4)c4ccsc4c3-c3c(F)cc(F)cc3OCCOC)sc2C1 [Compound 363] | < 100 nM | – | A (percent of modification of PIK3CA protein ≥75%)
C=CC(=O)N1CCc2nc(-c3nc(-c4ccc5c(c4)CNC5=O)c4ccsc4c3-c3c(F)cc(F)cc3OCCOC)sc2C1 [Compound 364] | < 100 nM | – | A (percent of modification of PIK3CA protein ≥75%)
C=CC(=O)N1CCc2nc(-c3nc(-c4cnc5c(c4)CN(C)CC5)c4ccsc4c3-c3c(F)cc(F)cc3OCCOC)sc2C1 [Compound 365] | < 100 nM | – | A (percent of modification of PIK3CA protein ≥75%)
C=CC(=O)N1CCc2nc(-c3nc(-c4ccc5c(c4)CCNC5)c4ccsc4c3-c3c(F)cc(F)cc3OCCOC)sc2C1 [Compound 366] | 100 to 1000 nM | – | A (percent of modification of PIK3CA protein ≥75%)
C=CC(=O)N1CCc2nc(-c3nc(-c4ccc5c(c4)CCNC5)c4ccsc4c3-c3c(F)cc(F)cc3OC(C)C)sc2C1 [Compound 367] | 100 to 1000 nM | – | A (percent of modification of PIK3CA protein ≥75%)
C=CC(=O)N1CC[C@H](n2cc(-c3nc(-c4cnn(C)c4)c4ccsc4c3-c3c(F)cc(F)cc3OCCOC)cn2)C1 [Compound 368] | 100 to 1000 nM | – | A (percent of modification of PIK3CA protein ≥75%)
C=CC(=O)N1CCc2nc(-c3nc(-c4ccc5c(c4)CCN(C)C5)c4ccsc4c3-c3c(F)cc(F)cc3OCCOC)sc2C1 [Compound 369] | < 100 nM | – | A (percent of modification of PIK3CA protein ≥75%)
C=CC(=O)N1CCc2ncc(-c3nc(N4CCN(C(C)C)CC4)c4ccsc4c3-c3c(F)cc(F)cc3OC(C)C)cc2C1 [Compound 373] | 100 to 1000 nM | – | A (percent of modification of PIK3CA protein ≥75%)
C=CC(=O)N1CCc2ncc(-c3nc(-c4cncc(C#N)c4)c4ccsc4c3-c3c(F)cc(F)cc3OCCOC)cc2C1 [Compound 376] | < 100 nM | – | A (percent of modification of PIK3CA protein ≥75%)
C=CC(=O)N1CCc2ncc(-c3nc(-c4cncc(Cl)c4)c4ccsc4c3-c3c(F)cc(F)cc3OCCOC)cc2C1 [Compound 377] | < 100 nM | – | A (percent of modification of PIK3CA protein ≥75%)
C=CC(=O)N1CCc2ncc(-c3nc(-c4cnc5c(c4)CN(C)CC5)c4ccsc4c3-c3c(F)cc(F)cc3OCCOC)cc2C1 [Compound 378] | < 100 nM | – | A (percent of modification of PIK3CA protein ≥75%)
C=CC(=O)N1CCc2ncc(-c3nc(-c4ccc5c(c4)CNC5=O)c4ccsc4c3-c3c(F)cc(F)cc3OCCOC)cc2C1 [Compound 379] | < 100 nM | – | A (percent of modification of PIK3CA protein ≥75%)
C=CC(=O)N1CCc2ncc(-c3nc(-c4cnnc(C)c4)c4ccsc4c3-c3c(F)cc(F)cc3OCCOC)cc2C1 [Compound 383] | < 100 nM | – | A (percent of modification of PIK3CA protein ≥75%)
C=CC(=O)N1CC[C@@H](n2cc(-c3nc(-c4ccn(C)c(=O)c4)c4ccsc4c3-c3c(F)cc(F)cc3OC(C)C)cn2)C1 [Compound 386] | < 100 nM | – | A (percent of modification of PIK3CA protein ≥75%)
C=CC(=O)N1CC[C@@H](n2cc(-c3nc(-c4cnn(CC(F)F)c4)c4ccsc4c3-c3c(F)cc(F)cc3OC(C)C)cn2)C1 [Compound 387] | 100 to 1000 nM | – | A (percent of modification of PIK3CA protein ≥75%)
C=CC(=O)N1CC[C@@H](n2cc(-c3nc(-c4cncc(C#N)c4)c4ccsc4c3-c3c(F)cc(F)cc3OC(C)C)cn2)C1 [Compound 388] | 100 to 1000 nM | – | A (percent of modification of PIK3CA protein ≥75%)
C=CC(=O)N1CC[C@@H](n2cc(-c3nc(-c4ccc(=O)n(C)c4)c4ccsc4c3-c3c(F)cc(F)cc3OC(C)C)cn2)C1 [Compound 389] | < 100 nM | – | A (percent of modification of PIK3CA protein ≥75%)
C=CC(=O)N1CCc2nc(-c3nc(-c4ncn(C)n4)c4ccsc4c3-c3c(F)cc(F)cc3OC(C)C)sc2C1 [Compound 390] | < 100 nM | – | A (percent of modification of PIK3CA protein ≥75%)
C=CC(=O)N1CC[C@@H](n2cc(-c3nc(-c4cnnc(C)c4)c4ccsc4c3-c3c(F)cc(F)cc3OC(C)C)cn2)C1 [Compound 391] | < 100 nM | – | A (percent of modification of PIK3CA protein ≥75%)
C=CC(=O)N1CCc2ncc(-c3nc(-c4cnn(C)c4)c4ccsc4c3-c3c(F)cc(F)cc3OCCOC)cc2C1 [Compound 393] | < 100 nM | – | A (percent of modification of PIK3CA protein ≥75%)
C=CC(=O)N1CCn2nc(-c3nc(-c4cnn(C)c4)c4ccsc4c3-c3ccc(F)cc3OC(C)C)cc2C1C (stereo not drawn) [Compound 394] | < 100 nM | – | A (percent of modification of PIK3CA protein ≥75%)
C=CC(=O)N1CCc2ncc(-c3nc(-c4cnn(C)c4)c4ccsc4c3-c3c(F)cc(F)cc3OCCO)cc2C1 [Compound 395] | < 100 nM | – | A (percent of modification of PIK3CA protein ≥75%)
C=CC(=O)N1CCc2ncc(-c3nc(-c4ccc5c(c4)C(O)CC5)c4ccsc4c3-c3c(F)cc(F)cc3OCCOC)cc2C1 (stereo not drawn) [Compound 397] | < 100 nM | – | A (percent of modification of PIK3CA protein ≥75%)
C=CC(=O)N1CCc2nc(-c3nc(-c4cnn(C)c4)c4ccsc4c3-c3c(F)cc(F)cc3OCCO)sc2C1 [Compound 398] | < 100 nM | – | A (percent of modification of PIK3CA protein ≥75%)

Further lines, with some results ahead:

IC50 (pAKT in BT474 cells) | IC50 (pAKT in BT474 cells; Homo sapiens, BT-474) | Structure (SMILES) | % of modification [1]
< 100 nM | – | C=CC(=O)N1CCc2ncc(-c3nc(-c4ccn(C(F)F)c(=O)c4)c4ccsc4c3-c3c(F)cc(F)cc3OC(C)C)cc2C1 [Compound 359] | A (percent of modification of PIK3CA protein ≥75%)
100 to 1000 nM | – | C=CC(=O)N1CCc2nc(-c3nc(-c4ccn(C(F)F)c(=O)c4)c4ccsc4c3-c3c(F)cc(F)cc3OC(C)C)sc2C1 [Compound 362] | A (percent of modification of PIK3CA protein ≥75%)
< 100 nM | – | C=CC(=O)N1CCc2ncc(-c3nc(-c4cnn(CC(F)F)c4)c4ccsc4c3-c3c(F)cc(F)cc3OC(C)C)cc2C1 [Compound 371] | A (percent of modification of PIK3CA protein ≥75%)
< 100 nM | – | C=CC(=O)N1CCc2ncc(-c3nc(-c4cnc(N)nc4)c4ccsc4c3-c3c(F)cc(F)cc3OC(C)C)cc2C1 [Compound 372] | A (percent of modification of PIK3CA protein ≥75%)
< 100 nM | – | C=CC(=O)N1CCc2ncc(-c3nc(-c4ccn(C)c(=O)c4)c4ccsc4c3-c3c(F)cc(F)cc3OCCOC)cc2C1 [Compound 374] | A (percent of modification of PIK3CA protein ≥75%)
< 100 nM | – | C=CC(=O)N1CCc2ncc(-c3nc(-c4ccc(=O)n(C)c4)c4ccsc4c3-c3c(F)cc(F)cc3OCCOC)cc2C1 [Compound 375] | A (percent of modification of PIK3CA protein ≥75%)
< 100 nM | – | C=CC(=O)N1CCc2ncc(-c3nc(-c4cccc(C#N)c4)c4ccsc4c3-c3c(F)cc(F)cc3OCCOC)cc2C1 [Compound 380] | A (percent of modification of PIK3CA protein ≥75%)
< 100 nM | – | C=CC(=O)N1CCc2ncc(-c3nc(-c4cccc(C#N)c4)c4ccsc4c3-c3c(F)cc(F)cc3OC(C)C)cc2C1 [Compound 381] | A (percent of modification of PIK3CA protein ≥75%)
< 100 nM | – | C=CC(=O)N1CCc2ncc(-c3nc(-c4ccc5c(c4)C(O)CC5)c4ccsc4c3-c3c(F)cc(F)cc3OC(C)C)cc2C1 (stereo not drawn) [Compound 384] | A (percent of modification of PIK3CA protein ≥75%)
< 100 nM | – | C=CC(=O)N1CCc2ncc(-c3nc(-c4cnn(CC(F)F)c4)c4ccsc4c3-c3c(F)cc(F)cc3OCCOC)cc2C1 [Compound 385] | A (percent of modification of PIK3CA protein ≥75%)
< 100 nM | – | C=CC(=O)N1CCc2ncc(-c3nc(-c4cnc(C)s4)c4ccsc4c3-c3c(F)cc(F)cc3OC(C)C)cc2C1 [Compound 392] | A (percent of modification of PIK3CA protein ≥75%)
< 100 nM | – | C=CC(=O)N1CCc2ncc(-c3nc(-c4ccc5c(c4)CCN(C)C5)c4ccsc4c3-c3c(F)cc(F)cc3OC(C)C)cc2C1 [Compound 399] | A (percent of modification of PIK3CA protein ≥75%)
